Where no end group is shown, it is not given here.
Key:
[1] = test system: Human Mesenchymal Stem Cells (hMSCs); assay: Osteogenic differentiation of human mesenchymal stem cells (Runx2/Osterix immunostaining, ALP activity); format: cell-based; details: type-I collagen sponge coupled with peptide, 1 week of culture
[2] = test system: mouse mesenchymal pre-osteoblastic cells (MC3T3-E1); assay: Osteogenic differentiation of osteoblast progenitors (optical profilometry of extracellular matrix, Runx2 Q-PCR, Osteopontin immunostaining); format: cell-based; details: apatite ceramics or type-I collagen sponge coupled with peptide vs native type-I collagen sponge, 48 hours
Procedure: The surface profiler system is a non-contact optical profiler that measures a wide range of surface heights. The vertical scanning interferometry mode allows for the measurement of rough surfaces and steps of up to several micrometers. This mode was used in order to measure the thickness of the extracellular matrix produced by the cells. First, after 24 h of culture, the cells were fixed with paraformaldehyde in PBS (4%) for 30 minutes at 4° C. and the samples were dehydrated in increasing concentrations of ethanol (30, 70, 80, 90, 95 and 100%) and critical-point dried. To evaluate the extent of the newly synthesized extracellular matrix, a spatula was used to scratch the surface of the materials. The samples were then metallized for 10 sec with gold or titanium before being analyzed.
The cells were first fixed for 20 min with 4% paraformaldehyde/PBS at 4° C. […]
Total RNA was extracted by using the RNeasy total RNA kit (Qiagen®) according to the manufacturer's instructions. […] Data were analyzed with the iCycler IQ™® software and compared by the ΔΔCt method. […]
The effect of the GFR-binding compounds as described herein (SEQ ID NO: 33) on the differentiation of osteoblast progenitors was evaluated. […]
An increase in the Runx2 gene expression after 24 hours of culture (FIG. 11) was observed by using Quantitative Real Time Polymerase Chain Reaction as described in the Methods section.

[3] = test system: Neurons (Neuronal Schwann Cells); assay: Neuron growth on titanium (dendrite growth, GAP43 Q-PCR); format: cell-based; details: titanium covalently modified with peptide
Description: […]

[4] = Stability of non-covalent deposit of FITC-labelled peptides on apatite ceramics or type-I collagen sponge; format: physicochemical; details: non-covalent coating, after 3, 7 or 10 days
Procedure: Non-covalent modifications of the materials were performed in air atmosphere at room temperature. The non-covalent coating strategy consisted in using a mixture of inducing peptide (SEQ ID NO: 23; concentration of 1×10^−3M) with an apatite ceramics implant or a mixture of inducing peptide (SEQ ID NO: 22; concentration of 1×10^−3M) with a type-I collagen sponge. The non-covalently coated conventional materials were characterized by using fluorescent peptides (Here SEQ ID NO: 22 and 23 covalently bound to fluorescein isothiocyanate (FITC), FIG. 6). The results shown here in FIG. 6 were obtained from experiments performed with apatite ceramics and a type-I collagen sponge. […] Indeed, after 3, 7 or 10 days, the osteogenic peptides were still coupled to the ceramics or the type-I collagen (FIGS. 7a and b).

hMSCs [5] = assay: Loss of stemness: STRO-1 expression by immunostaining; format: cell-based, human; details: Table 8, SEQ ID NO: 1 to 49 tested in combination with a bioactive carrier (titanium, ceramics, collagen, etc.)
Method in brief: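 hMSCs cultured on plastic with GFR-binding peptides in solution (some sequences tested with a bioactive carrier), then fixed, permeabilized and immunostained for Stro-1. Stro-1-positive contact number and area quantified by thresholded image analysis, minimum 30 cells per condition.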

hMSCs [6] = assay: Cartilage regeneration: chondrocyte differentiation of hMSCs on 14 kPa hydrogels (Sox9, Aggrecan); format: cell-based, human; details: 14 kPa hydrogels covalently modified with peptides, 96 hours
Procedure: Total RNA was extracted by using the RNeasy total RNA kit (Qiagen®) according to the manufacturer's instructions. Purified total RNA was used as a template in order to make cDNA by a reverse transcription reaction (Gibco Brl®) with random primers (Invitrogen®). The cDNA was then used as a template for a real-time PCR amplification in the presence of SYBR green reagents (Bio-Rad®) by using a thermocycler (iCycler, Biorad®). Data were analyzed with the iCycler IQ™® software and compared by the ΔΔCt method. […]
Total RNA was extracted by using the RNeasy Mini Kit (Qiagen) and […] RNA was used for cDNA synthesis with AMV kit (Invitrogen®) according to the manufacturer' instructions. Semi-quantitative reverse transcriptase-polymerase chain reaction (RT-PCR) was performed with Taq DNA Polymerase (Invitrogen®) in a thermocycler (Bio-Rad®). […] The PCR products were analyzed on 2% agarose gels. For the Aggrecan gene, the PCR bands were densitometrically quantified by using the BioCapt software (Vilber). […]
It was then verified that these hMSCs cultured on the covalently modified hydrogels were differentiated into chondrocyte cells by analyzing the expression of the chondrocyte gene biomarker: Aggrecan. […] For that a semi-quantitative RT-PCR was performed as described in the Methods section for the Aggrecan gene and a Quantitative Real Time PCR for Sox9.

[7] = test system: Human umbilical-vein endothelial cells; assay: Angiogenesis: tube-like structure formation on PET; format: cell-based; details: PET covalently modified with peptide, 18 hours
Procedure: (§1) The polymer used in this study is poly(ethylene terephthalate) (PET). The polymers were first treated in order to create —COOH (carboxyl) functions on the PET surfaces from —OH (hydroxyl) functions. Next, the PET-COOH samples were immersed in a solution of dimethylaminopropyl-3-ethylcarbodiimide hydrochloride (EDC, 0.2 M)+N-hydroxysuccinimide (NHS, 0.1 M) in 2-(N-morpholino)-ethanesulfonic acid (MES) buffer (0.1 M in MilliQ water) and the samples were rinsed in MilliQ water (50 mL for 30 min). The same protocol was used for all the polymers containing —OH (hydroxyl) functions on their extreme surface. Finally, the covalent immobilization of the peptides was achieved by using a solution of peptides/1×PBS (C=10^−3 M) incubated for 18 hours at room temperature. After grafting, the materials were rinsed in MilliQ water (100 ml) for 1 week.

[8] = test system: Human umbilical-vein endothelial cells; assay: Endothelialization: adherent junctions (CD31) of endothelial cells on PET; format: cell-based; details: PET covalently modified with peptide vs native PET, 36 hours
Procedure: as §1
An increase in the area of the adherent junctions (CD31) was observed after 36 hours of culture on the covalently modified PET (FIG. 13).

Substance: WWFWGKASSVPTELSPISTLYKDENEKVVLKYHYDMVVEGSGSR (WWFWGKASSVPTELSPISTLYKDENEKVVLKYHYDMVVEGXGXR; GFR-binding peptide; MOD_RES (41), (43): Xaa is C or S) [SEQ ID NO: 32]
- ALP (Alkaline Phosphatase) activity [1]: increase

Substance: WWFWGASSAVSQELSAISMLYLGGGLKNYQDMQHN (GFR-binding peptide) [SEQ ID NO: 33]
- production of extracellular matrix proteins such as Osteopontin (OPN) [2]: extensive amounts

Substance: CTVPKPSSAPTQLSPISILYIDAANNVVYKQYEDMVVRA (CTVPKPXXAPTQLSPISILYIDAANNVVYKQYEDMVVRA; GFR-binding peptide; MOD_RES (7), (8): Xaa is C or S) [SEQ ID NO: 49]
- establishment of cell-cell contacts via dendrite growth ([3]; 6 hours): rapid establishment
- Growth Associated Protein 43 (GAP43) gene expression (Q-PCR) ([3]; 48 hours): high level of expression

Substance: WWFWGKVPKPSSAPTQLSAISTLYLDEYDKVVLKNYQNMVVR (WWFWGKVPKPXXAPTQLSAISTLYLDEYDKVVLKNYQNMVVR; GFR-binding peptide; MOD_RES (11), (12): Xaa is C or S) [SEQ ID NO: 22]
- release of peptide from type-I collagen sponge over time [4]: no significant release

Substance: 37 (CASAAPSSVPQALEPLPIVYYVGRTPKVEQLSNMIVRSSK; not fully specified; ends and bridges not checked) [compound 37]
- STRO-1 expression (%) (hMSCs [5]): 21%
- Sox9 protein expression (hMSCs [6]): expression of the Sox9 protein was observed

Substance: GTPGPKVPKPSSAPTQLSAISTLYLDEYDKVVLKNYQNMAVR (GTPGPKVPKPXXAPTQLSAISTLYLDEYDKVVLKNYQNMAVR; GFR-binding peptide; MOD_RES (11), (12): Xaa is C or S) [SEQ ID NO: 23]
- release of peptide from apatite ceramics over time [4]: no significant release

Substance: CVPTEESNITMQIMRIKPHQGQHIGEMSFL (GFR-binding peptide) [SEQ ID NO: 39]
- formation of tube-like structures [7]: formation of tube-like structures was observed

Substance: CKIPKASSVPTELEPLPIVYYVGRKPKVEQLSNMIVRS (CKIPKAXXVPTELEPLPIVYYVGRKPKVEQLSNMIVRS; GFR-binding peptide; MOD_RES (7), (8): Xaa is C or S) [SEQ ID NO: 36]
- Sox9 protein expression (hMSCs [6]): expression of the Sox9 protein was observed

Substance: CVPTEERSVKVAKVRIKPHQGQHKEVQV (GFR-binding peptide) [SEQ ID NO: 38]
- area of the adherent junctions (CD31) [8]: increase
